Measurements as given in patent publication US9480772B2, “Gel sheet containing lipid peptide gelator and polymeric compound” (NISSAN CHEMICAL INDUSTRIES, LTD., priority 2010, dated 2016).
Residues, ends and D or L forms follow the SMILES beside them. *: point of attachment. Palmitoyl = CCCCCCCCCCCCCCCC(=O)*

Test: Gel state after standing overnight and affinity with water (Example 1)
Format: physicochemical
Design: key to Affinity with water by addition of milliQ water: a sample ascertained to have the affinity with water is evaluated as ∘; a sample ascertained to have no affinity with water is evaluated as x
Protocol: N-Palmitoyl-Gly-His synthesized above was dissolved in a 50 mM phosphate buffer solution (pH 7.5) so as to give a concentration of 1% (w/w) in a closed system at 100° C. To the solution, gum arable (Wako Pure Chemical Industries, Ltd.) was added dropwise so as to give a concentration of 10% (w/w) so as to form gel. From the formed gel, 200 μl of the gel was taken and dropped onto a glass petri dish. The gel was left overnight and then observed. To the gel after standing overnight, milliQ water was dropped, and the affinity with water was observed. Also, PVA (manufactured by Wako Pure Chemical Industries, Ltd., n=1,500 to 1,800) at a concentration of 10% (w/w) was added dropwise, in place of the gum arabic, so as to form gel. Then, the gel was subjected to the same procedure, and the gel after standing overnight was observed.
For comparison, gum arable alone or PVA alone was used without using N-palmitoyl-Gly-His and was dropped onto a glass petri dish in a similar manner. Then, each sample was left overnight and then observed in a similar manner.
From the observation results, a sample ascertained to have the affinity with water is evaluated as ∘, and a sample ascertained to have no affinity with water is evaluated as x.

CCCCCCCCCCCCCCCC(=O)NCC(=O)N[C@@H](Cc1c[nH]cn1)C(=O)O [N-palmitoyl-Gly-His] (Palmitoyl-Gly-His-OH)
Change in gel state after standing overnight (200 μl dropped onto a glass petri dish, left overnight): White gel
Affinity with water by addition of milliQ water (gel after standing overnight, milliQ water dropped): ∘
